Reference: patent US20240417729A1, “THERAPEUTIC TREATMENT FOR FRAGILE X-ASSOCIATED DISORDER” (University of Massachusetts, priority 2021, published 2024)
Several values for one entry are separate records, joined by “and”; a condition that tells them apart may be missing. Equal entries are not always repeated. Entries after “also recorded” stand apart in the source; their conditions may differ. Where two headings read alike, the source gives them in different places.

Experiments:
FMRP [1] = assay: Western blot of FMRP relative to GAPDH in FXS1 LCL (GM07365); type: cell-based, human; conditions: 5-AzadC 1 μM alone, 7 days
Description: For each cell culture, 30×10^5 cells/mL were added in a final volume of 20 mL medium (RPMI 1640 medium (Sigma-Aldrich), supplemented with 15% FBS and 2.5% L-glutamine at 37° C. with 5% CO2) per T25 flask. 5-Aza-2′-deoxycytidine (5-AzaC) (Sigma-Aldrich, A3656) was added to the cell cultures (final concentration 1 μM) for 7 consecutive days. A 2 mM stock of 5-AzaC was made in DMSO. For each cell line, two independent treatments were performed (n=2). For the no treatment controls for each cell line, DMSO was added to the flasks. […]
Cells were homogenized at 4° C. in RIPA buffer with incubation on ice for 10 minutes and dissociation by pipetting. […] Protein concentration was determined by BCA reagent. Proteins (10 μg) were diluted in SDS-bromophenol blue reducing buffer with 40 mM DTT and analyzed using western blotting on a 10% SDS-PAGE gel with the following antibodies: FMRP (Abcam, 1:2000) and GAPDH (Cell signaling, 1:2000) diluted in 1×TBST with 5% non-fat milk. […]
Cells were homogenized at 4° C. in RIPA buffer, with incubation on ice for 10 minutes and dissociation by pipetting. […] Protein concentration was determined using BCA reagent. […]
Cells were homogenized at 4° C. in radioimmunoprecipitation assay (RIPA) lysis buffer with incubation on ice for 10 minutes and dissociation by pipetting. […] Protein concentration was determined by BCA reagent.

FMR1-217 RNA [2] = assay: RT-qPCR of FMR1-217 and FMR1 in FXS lung fibroblasts (GM07072) treated with 5-AzadC and ASOs 713/714; type: cell-based, human; conditions: fully methylated FMR1, 5-AzadC in the absence of ASOs
Description: FIG. 15D Lung fibroblasts derived from a FXS individual (GM07072, Coriell Institute) were cultured with 5-AzadC for 8 days and then treated with ASOs 713/714 (100 nM each) for 72 hours prior to RNA and protein extraction. RT-qPCR analysis of FMR1-217, FMR1, and GAPDH RNAs in lung fibroblasts treated with DMSO, ASOs 713/714, 5-AzadC, or the ASOs 713/714 plus 5-AzadC. The amounts of FMR1-217 and FMR1 were made relative to GAPDH. (*p<0.05, **p<0.01, ***p<0.001, one way ANOVA with multiple comparisons test).
FIG. 21D Lung fibroblasts derived from an FXS individual (GM07072, Coriell Institute) were cultured with 5-AzadC for 8 days and then treated with ASOs 713/714 (100 nM each) for 72 hours prior to RNA and protein extraction. RT-qPCR analysis of FMR1-217, FMR1, and GAPDH RNAs in lung fibroblasts treated with DMSO, ASOs 713/714, 5-AzadC, or the ASOs 713/714 plus 5-AzadC. The amounts of FMR1-217 and FMR1 were made relative to GAPDH (*P<0.05, **P<0.01, ***P<0.001, one-way ANOVA with multiple comparisons test).

FMRP [3] = assay: Western blot of FMRP in FXS dermal fibroblasts (GM05131B); type: cell-based, human; conditions: 5-AzadC alone
Description: (§1) Cells were homogenized at 4° C. in RIPA buffer, with incubation on ice for 10 minutes and dissociation by pipetting. The extract was centrifuged at 13,200 rpm for 10 minutes at 4° C., and the supernatant collected. Protein concentration was determined using BCA reagent. Proteins (10 μg) were diluted in SDS-bromophenol blue reducing buffer with 40 mM DTT and analyzed using western blotting with the following antibodies: FMRP (Millipore, mAb2160, 1: 1,000), FMRP (Abcam, ab17722, 1:1,000) and GAPDH (14C10, Cell Signaling Technology, mAb 2118, 1:2,000), diluted in 1×TBST with 5% non-fat milk. Membranes were washed three times for 10 minutes with 1×TBST and incubated with anti-rabbit or anti-mouse secondary antibodies (Jackson, 1:10,000) at room temperature for 1 hour. Membranes were washed three times for 10 minutes with 1×TBST, developed with ECL-Plus (Piece), and scanned with GE Amersham Imager.
Cells were homogenized at 4° C. in radioimmunoprecipitation assay (RIPA) lysis buffer with incubation on ice for 10 minutes and dissociation by pipetting. The extract was centrifuged at 13,200 rpm for 10 minutes at 4° C., and the supernatant was collected. Protein concentration was determined by BCA reagent.

[4] = tested on: FMR1 transcripts (total, FMR1-205, FMR1-217); conditions: FXS iPSC-derived NSCs, reanalyzed from RNA-seq data of Vershkov et al., cited from earlier work
FMR1-217 RNA [5] = assay: RT-qPCR of FMR1-217 and full-length FMR1 in partially methylated FXS2 LCL (GM06897); type: cell-based, human; conditions: 5-AzadC 1 μM, 7 days, vs DMSO
Description: (§2) One microgram (μg) of total RNA was primed with oligo(dT)20 to generate cDNA with a QuantiTect cDNA synthesis kit (Qiagen, #205311) using random hexamers (Table 3). qPCR was performed using the iTaq™ Universal SYBR® Green Supermix (BIO-RAD #1725122) on a QuantStudio 3 qPCR machine in duplicate.
(§3) Antisense oligonucleotides (ASOs) were dissolved in ultrapure distilled water to a final concentration of 10 μM. Before use, the ASOs were heated to 55° C. for 15 minutes and cooled at room temperature. ASOs were added, individually or in combinations, to LCL cell lines at a final concentration of 80 nM or 160 nM using Lipofectamine RNAIMAX® Transfection Reagent (Thermo Fisher Scientific, 13778030) and incubated at 37° C. with 5% CO2 for 16 hours in reduced serum medium. RPMI 1640 medium (Sigma-Aldrich), supplemented with 15% fetal bovine serum (FBS) was added for a total of 72 hours. The cells were collected after 72 hours of ASO treatment for RNA and protein extraction.
For each cell culture, 30×10^5 cells/mL were added to a final volume of 20 mL medium (RPMI 1640 medium (Sigma-Aldrich) supplemented with 15% fetal bovine serum (FBS) and 2.5% L-glutamine at 37° C. with 5% CO2) per T25 flask. 5-Aza-2′-deoxycytidine (5-AzadC) (Sigma-Aldrich, A3656) was added to the cell cultures (final concentration 1 μM) for 7 consecutive days. A 2 mM stock of 5-AzadC was made in DMSO. […]

FMR1 RNA = conditions: FXS LCLs; 36 days of 5-AzadC; previous study; cited from earlier work
FMR1-217 RNA [6] = assay: RT-qPCR of FMR1-217 and full-length FMR1 in fully methylated FXS1 LCL (GM07365) treated with 5-AzadC and/or ASOs; type: cell-based, human; conditions: 5-AzadC (5-AzaC) 1 μM alone, 7 days, vs DMSO
Description: For each cell culture, 30×10^5 cells/mL were added in a final volume of 20 mL medium (RPMI 1640 medium (Sigma-Aldrich), supplemented with 15% FBS and 2.5% L-glutamine at 37° C. with 5% CO2) per T25 flask. 5-Aza-2′-deoxycytidine (5-AzaC) (Sigma-Aldrich, A3656) was added to the cell cultures (final concentration 1 μM) for 7 consecutive days. A 2 mM stock of 5-AzaC was made in DMSO. For each cell line, two independent treatments were performed (n=2). For the no treatment controls for each cell line, DMSO was added to the flasks. For samples with both 5-AzaC and ASO treatment, 80 nM ASOs or vehicle were added on Day 1 and either 5-AzaC or DMSO was added each day from Day 2 up to Day 9 at a final concentration of 1 μM. On Day 9 the cells were collected in 1×Phosphate buffered saline to proceed with RNA extraction or Western blotting.
as §2, §3
For each cell culture, 30×10^5 cells/mL were added to a final volume of 20 mL medium (RPMI 1640 medium (Sigma-Aldrich) supplemented with 15% fetal bovine serum (FBS) and 2.5% L-glutamine at 37° C. with 5% CO2) per T25 flask. 5-Aza-2′-deoxycytidine (5-AzadC) (Sigma-Aldrich, A3656) was added to the cell cultures (final concentration 1 μM) for 7 consecutive days. A 2 mM stock of 5-AzadC was made in DMSO. For each cell line, two independent treatments were performed (n=2). For the no treatment controls for each cell line, DMSO was added to the flasks. For samples with both 5-AzadC and ASO treatment, 80 nM or 160 nM ASOs or vehicle were added on Day 1 and either 5-AzadC or DMSO was added each day from Day 2 up to Day 9 at a final concentration of 1 μM. On Day 9 the cells were collected in 1× phosphate buffered saline to proceed with RNA extraction or Western blotting. […]

FMRP [7] = assay: Western blot of FMRP relative to GAPDH in FXS2 LCL (GM06897); type: cell-based, human; conditions: 5-AzadC 1 μM, 7 days
Description: as §3, with “The cells were collected after 72 hours of ASO treatment for RNA and protein extraction.” left out
as §1, with “Membranes were washed three times for 10 minutes with 1×TBST and incubated with anti-rabbit or anti-mouse secondary antibodies (Jackson, 1:10,000) at room temperature for 1 hour. Membranes were washed three times for 10 minutes with 1×TBST, developed with ECL-Plus (Piece), and scanned with GE Amersham Imager.” left out
Cells were homogenized at 4° C. in radioimmunoprecipitation assay (RIPA) lysis buffer with incubation on ice for 10 minutes and dissociation by pipetting. […] Protein concentration was determined by BCA reagent. […]

Nc1ncn([C@H]2C[C@H](O)[C@@H](CO)O2)c(=O)n1 [5-AzadC, 5-Aza-2′-deoxycytidine]
FMRP level (western blot, relative to GAPDH) (FMRP [1]): little or no FMRP; also recorded: increased FMR1-217 RNA levels but not FMRP; also recorded: In neither cell line did 5-AzadC treatment induce a significant increase in FMRP; also recorded: did not affect FMRP levels; also recorded: unaffected; also recorded: little FMRP; also recorded: modest increase; also recorded: modestly affected | FMR1-217 RNA level (FMR1-217 RNA [2]): increased | FMR1 RNA level (FMR1-217 RNA [2]): increased | FMRP level (western blot) (FMRP [3]): no effect | FMR1 (total) reads ([4]; biologic duplicate): 9.9 TPM and 6.1 TPM | FMR1-217 reads ([4]; biologic duplicate): 6.9 TPM and 3.9 TPM | FMR1-217 RNA-seq reads (in words) [4]: clearly evident; also recorded: strong FMR1-217 expression; also recorded: reads corresponding to FMR1-217; also recorded: detected only in the 5-AzadC-treated samples | total FMR1 and FMR1-205 expression (in words) [4]: strong total FMR1 and FMR1-205 expression; also recorded: expressed | FMR1-217 RNA-seq reads (in words) ([4]; listed as 5-azadC): detected only in the 5-azadC-treated samples | full-length FMR1 RNA level (FMR1-217 RNA [5]): increase of only full-length FMR1 RNA | FMRP level compared to that in TD cells (FMR1 RNA): even lower level | restoration of FMR1 RNA (FMR1 RNA): up to 40% | FMR1-217 (iso12) RNA level (FMR1-217 RNA [6]): synthesis of both FMR1 and FMR1-217 RNAs; also recorded: increased FMR1-217 RNA levels; also recorded: significant increases; also recorded: expected increase; also recorded: resulted in the expression of FMR1-217 and full-length FMR1 | full-length FMR1 (iso1) RNA level (FMR1-217 RNA [6]): synthesis of both FMR1 and FMR1-217 RNAs; also recorded: significant increases; also recorded: expected increase; also recorded: resulted in the expression of FMR1-217 and full-length FMR1 | FMR1-217 (iso12) RNA level (FMR1-217 RNA [6]; listed as 5-AzaC): increase in FMR1 iso12 | full-length FMR1 (iso1) RNA level (FMR1-217 RNA [6]; listed as 5-AzaC): increase in FMR1 iso1 | FMRP level (western blot, relative to GAPDH) (FMRP [7]): In neither cell line did 5-AzadC treatment induce a significant increase in FMRP
